In patent US20240140953A1, “INHIBITORS OF MENIN-MLL INTERACTION” (BIOMEA FUSION, INC., priority 2018, published 2024):
Entries after “also recorded” stand apart in the source; their conditions may differ. Read-outs that look alike come from different tables or passages of the source.

What was measured:
HL-60 = assay: Proliferation study, CellTiterGlo, 4 days (Example 102), HL-60; assay type: cell-based; settings: HL-60, 4 days treatment; for HL-60 % max: maximal inhibition; for IC50: Homo sapiens, 96 h, CellTiterGlo
Excerpt: The objective of the study was to evaluate the ability of representative compounds of the present invention, inhibitors of Menin/MLL interaction to inhibit cell proliferation. The proliferation inhibitory effect was investigated in two human MLL-leukemia cells selected on the bases of MLL fusion protein and listed in Table 102. HL-60 cell line was used as negative control.
ATP is present in all metabolically active cells and is considered as a marker for cell viability and proliferation. The metabolic cell activity was determined using the CellTiter-Glo kit from Promega, an ATP monitoring system based on the production of luminescence by the reaction of ATP with added UltraGlo® recombinant luciferase (Kawano et al., 2016), according to the supplier's experimental recommendations.
The described assay evaluates the ability of 4 representative compounds to inhibit the cell proliferation in the human MLL-leukemia cells plus a negative control cell line.
The assay provides potency values (IC50) for each test compound at a single time point Day 4 (T4).
Seven concentrations of the compounds (2.00E-05-6.67E-06-2.22E-06-7.41E-07-2.47E-07-8.23E-08-2.74E-08M), were assessed in duplicate in an individual test occasion in all the cell lines. MI-503 (Borkin et al., 2015) was used as reference compound and was tested at the same concentrations as the NCEs. 100% of proliferation is represented by the untreated cells (0.2% DMSO). The cell growth was monitored up to 4 days in culture.
MV4-11, MOLM-13 and HL-60 cells (see Table 2) were maintained in RPMI-1640 medium (Invitrogen, Cat. n. 618700, Batch n. 1965930) supplemented with 10% of Heat Inactivated FBS (Invitrogen, Cat n. 10500, Batch n. 08Q8078K) and 1% Pen-Strep (Invitrogen, Cat. N. 15140, Batch n. 1910859) and cultured at 37° C. in a humidified incubator with 5% CO2. All the cell lines grow in suspension and the cell density was maintained in a range of 2×10^5-1×10^6 viable cells/ml. Cells were pelleted at 130 g×5 min and conditioned medium was used to dilute the cell suspension.
Test items were dissolved in glass vials at 10 mM in DMSO with purity ≥99.9% (Sigma, D8418, batch n. SHBH4245V) and stored at −20° C. in 1.5 mL Eppendorf tubes.
Serial dilutions 1 to 3 in DMSO 100% were prepared starting from a 10 mM stock solutions to generate 7 points concentration response curve (CRC).
For each plate to test, one 0.4 μL copy plate and four 0.3 μL copy plates were then stamped into 96-well plates not treated for cell adhesion (Sarstedt—cat.no. 82.1581.001) by acoustic liquid Handling, Echo, at a concentration which was 500 fold the final assay concentration. Stamped plates were stored at −20° C. The final concentrations for the reference compound, MI-503, and the test items were: 2.00E-05, 6.67E-06, 2.22E-06, 7.41E-07, 2.47E-07, 8.23E-08 and 2.74E-08 M.
Cells were plated in 96-well flat bottom microtiter plates at cell density of 15,000 cells/ml for HL-60, 1000 cells/ml for MOLM-13 and 10,000 cell/ml for MV4-11. Cells were treated with 0.2% DMSO (Sigma, D8418, batch n. SHBH4245V) or serial dilutions of compounds (0.027 μM-20 μM) in DMSO (0.2% final concentration). Cells were incubated in a 5% CO2 incubator at 37° C. for 4 days. A CellTiterGlo viability assay (Promega) was employed. Luminescence was read by using VictorV (Perkin Elmer) multilabel plate reader using the standard protocol for luminescence in 96 well plate. The experiment was performed in duplicate.
(§1) Data were expressed as % of inhibition compared to the 0.2% DMSO negative control, and was calculated as follows: […]
CRCs were analysed by GraphPad and IC50 values were calculated by non-linear regression using 4 parameter-logistic equation. IC50 (μM) values were reported in the final data table. The curve fittings were performed leaving free all the parameters. Any constrain were reported in the results table.

MOLM-13 (MLL-AF9) = assay: LTP assay, CellTiterGlo, T4-T14 (Example 103), MOLM-13; assay type: cell-based, human; settings: for inhibition of cell viability (in words): MOLM-13, LTP assay
Experimental: (§2) The day of the experiment (T0) all the cell line suspensions were counted by Cell Viability Analyser, Vi-CELL and properly diluted with fresh medium to obtain the cell density reported in the Test System paragraph.
(§3) Cells were tested after 4 passages after thawing.
(§4) 200 μL/well and 150 μL/well of cell suspension were added into the 0.4 μL/well and 0.3 μL/well compound plates, respectively. • Cell plate containing 200 μL/well suspension was incubated at 37° C. in a humidified incubator with 5% CO2. • From each well of the 150 μL/well cell assay plate, 100 μL were harvested and transferred into a 96-well Optiplate (Perkin Elmer, Cat. n. 6005290) and cell viability was measured as described in 4.3 paragraphs (T0).
(§5) After four days in culture (T4) 150 μL/well of fresh medium were added into a new 0.3 μL/well copy compound plate. • From each well of the 200 μL/well cell assay plate: • 100 μL were sampled for the cell viability measurement as described in 4.3 paragraphs (T4). • 50 μL were harvested and added to the 150 μL/well compound plate prepared as described in the first point to dilute 1:4 the cell suspension. • The cell assay plate diluted and containing 200 μL/well suspension were incubated at 37° C. in a humidified incubator with 5% Co2.
(§6) At T7-T11-T14 it was proceeded as described in T4, with the exception that no further cell dilution was carried out at T14.
(§7) Plates containing the samples to be tested were equilibrated at room temperature for approximately 30 min and then 30 μL/well of the Promega CellTiterGlo® reagent were added.
(§8) Contents will be mixed for 5 min on an orbital shaker to induce cell lysis and then incubated at room temperature for an additional 10 min to stabilize the luminescent signal.
(§9) Luminescence was read by using VictorV (Perkin Elmer) multilabel plate reader using the standard protocol for luminescence in 96 well plate.
as §1
(§10) CRCs were analysed by GraphPad and IC50 values were calculated by non-linear regression using 4 parameter-logistic equation. IC50 (μM) values were reported in the final data table.
(§11) The curve fittings were performed leaving free all the parameters. Any constrain were reported in the results table.

MV4-11 (MLL-AF4) = assay: LTP assay, CellTiterGlo, T4-T14 (Example 103), MV4-11; assay type: cell-based, human; settings: for inhibition of cell viability (in words): MV4-11, LTP assay
Experimental: as §2, §3, §4, §5, §6, §7, §8, §9, §1, §10, §11

[1] = read-out: HL-60 pIC50 (converted)
[2] = Homo sapiens, MOLM-13, 96 h, MOLM-13 (MLL-AF9), T4 (Day 4), read-out: IC50 T4 (Day 4)
[3] = Homo sapiens, MOLM-13, MOLM-13 (MLL-AF9), T7, read-out: IC50 T7
[4] = Homo sapiens, MOLM-13, MOLM-13 (MLL-AF9), T11, read-out: IC50 T11
[5] = Homo sapiens, MOLM-13, MOLM-13 (MLL-AF9), T14, read-out: IC50 T14
[6] = MOLM-13 (MLL-AF9), T4 (Day 4), read-out: IC50 T4 (Day 4)
[7] = Homo sapiens, MV4-11, 96 h, MV4-11 (MLL-AF4), T4 (Day 4), read-out: IC50 T4 (Day 4)
[8] = Homo sapiens, MV4-11, MV4-11 (MLL-AF4), T7, read-out: IC50 T7
[9] = Homo sapiens, MV4-11, MV4-11 (MLL-AF4), T11, read-out: IC50 T11
[10] = Homo sapiens, MV4-11, MV4-11 (MLL-AF4), T14, read-out: IC50 T14

| IC50 (HL-60; read-out: HL-60 IC50) [nM] | IC50 (HL-60; [1]) [nM] | IC50 (MOLM-13 (MLL-AF9); [2]) [nM] | IC50 (MOLM-13 (MLL-AF9); [3]) [nM] | IC50 (MOLM-13 (MLL-AF9); [4]) [nM] | IC50 (MOLM-13 (MLL-AF9); [5]) [nM] | IC50 (MOLM-13 (MLL-AF9); [6]) [nM] | IC50 (MV4-11 (MLL-AF4); [7]) [nM] | IC50 (MV4-11 (MLL-AF4); [8]) [nM] | IC50 (MV4-11 (MLL-AF4); [9]) [nM] | IC50 (MV4-11 (MLL-AF4); [10]) [nM] | IC50 (MV4-11 (MLL-AF4); MV4-11 (MLL-AF4), T4 (Day 4), read-out: IC50 T4 (Day 4)) [nM] | IC50 (MV4-11 (MLL-AF4); MV4-11 (MLL-AF4), T7, read-out: IC50 T7) [nM] | Compound | HL-60 % max (HL-60) [%] | inhibition of cell viability (in words) (MOLM-13 (MLL-AF9)) | inhibition of cell viability (in words) (MV4-11 (MLL-AF4)) | inhibition of cell viability (in words) (HL-60; up to 20 μM) |
| --- | --- | --- | --- | --- | --- | --- | --- | --- | --- | --- | --- | --- | --- | --- | --- | --- | --- |
| 320 | 316 |  |  |  |  |  |  |  |  |  |  |  | O=C(Nc1ccc(-c2cc3c(N4CCOCC4)ncnc3[nH]2)cc1)Nc1cc(-c2cccnc2)n[nH]1 [Compound 9, 1-{4-[4-(morpholin-4-yl)-7H-pyrrolo[2,3-d]pyrimidin-6-yl]phenyl}-3-[3-(pyridin-3-yl)-1H-pyrazol-5-yl]urea] | 69 |  |  |  |
| 510 | 513 | 660 | 513 | 320 | 420 | 661 | 650 | 500 | 420 | 310 | 646 | 501 | Cn1nc(-c2cccnc2)cc1CC(=O)Nc1ccc(-c2cc3c(N4CCOCC4)ncnc3[nH]2)cc1 [Compound 11, 2-[1-methyl-3-(pyridin-3-yl)-1H-pyrazol-5-yl]-N-{4-[4-(morpholin-4-yl)-7H-pyrrolo[2,3-d]pyrimidin-6-yl]phenyl}acetamide] | 102 | fully inhibited cell viability | fully inhibited cell viability |  |
| > 20000 | > 20000 | > 5000 | 5750 | 562 | > 5000 | > 10000 | 1550 | 1260 | 850 | 870 |  |  | O=C(Cc1cc(-c2cccnc2)n[nH]1)Nc1ccc(-c2nc3c(N4CCOCC4)ncnc3[nH]2)cc1 [Compound 12, N-{4-[6-(morpholin-4-yl)-9H-purin-8-yl]phenyl}-2-[3-(pyridin-3-yl)-1H-pyrazol-5-yl]acetamide] |  | partial effect | partial effect | not active up to the highest concentration tested; also recorded: completely inactive up to the highest concentration tested |
